Source: PubChem BioAssay AID248 (DTP/NCI, 2004)
Toxic doses and inconclusive results are not listed. No stated cut-off is given here; in the data, active means T/C of 150% or more; inactive means T/C below 125%.

System: L1210 leukemia ip in BDF1 mice, survival T/C
Experiment: NCI In Vivo Anticancer Drug Screen. Data for tumor model L1210 Leukemia (intraperitoneal) in B6D2F1 (BDF1) mice
Settings: endpoint: mean survival time, higher = longer survival
Outline: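 Each compound was tested against a transplantable tumor grown in mice. The endpoint was survival, with treated animals benchmarked against vehicle controls as a simple ratio.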

[1] = dose: 100.0 mg/kg/injection, schedule: Q01DX009 (ip), vehicle: saline with Tween-80
[2] = dose: 100.0 mg/kg/injection, schedule: Q04DX003 (ip), vehicle: saline with Tween-80
[3] = dose: 200.0 mg/kg/injection, schedule: Q01DX009 (ip), vehicle: saline with Tween-80
[4] = dose: 200.0 mg/kg/injection, schedule: Q04DX003 (ip), vehicle: saline with Tween-80
[5] = dose: 400.0 mg/kg/injection, schedule: Q01DX009 (ip), vehicle: saline with Tween-80
[6] = dose: 400.0 mg/kg/injection, schedule: Q04DX003 (ip), vehicle: saline with Tween-80
[7] = dose: 100.0 mg/kg/injection, schedule: Q04DX002 (ip), vehicle: Klucel (hydroxypropylcellulose) (HPC)
[8] = dose: 200.0 mg/kg/injection, schedule: Q04DX002 (ip), vehicle: Klucel (hydroxypropylcellulose) (HPC)
[9] = dose: 100.0 mg/kg/injection, schedule: Q01DX009 (ip), vehicle: Klucel (hydroxypropylcellulose) (HPC)
[10] = dose: 200.0 mg/kg/injection, schedule: Q01DX009 (ip), vehicle: Klucel (hydroxypropylcellulose) (HPC)
[11] = dose: 400.0 mg/kg/injection, schedule: Q01DX009 (ip), vehicle: Klucel (hydroxypropylcellulose) (HPC)
[12] = dose: 100.0 mg/kg/injection, schedule: Q04DX003 (ip), vehicle: saline
[13] = dose: 200.0 mg/kg/injection, schedule: Q04DX003 (ip), vehicle: saline
[14] = dose: 400.0 mg/kg/injection, schedule: Q04DX003 (ip), vehicle: saline

Measured: T/C

COC1CC(N=[N+]=[N-])C(OS(C)(=O)=O)C(C)O1 (stereo unspecified)
inactive: dose: 100.0 mg/kg/injection, schedule: Q01DX001 (ip), vehicle: carboxymethylcellulose (CMC) 98 % of control | [1] 109 % of control | [2] 107 % of control | dose: 200.0 mg/kg/injection, schedule: Q01DX001 (ip), vehicle: carboxymethylcellulose (CMC) 106 % of control | [3] 94 % of control | [4] 107 % of control | dose: 400.0 mg/kg/injection, schedule: Q01DX001 (ip), vehicle: carboxymethylcellulose (CMC) 98 % of control | [5] 109 % of control | [6] 108 % of control

CCC1(CCCCCBr)OCCO1
inactive: [7] 101 % of control | [8] 108 % of control | dose: 400.0 mg/kg/injection, schedule: Q04DX002 (ip), vehicle: Klucel (hydroxypropylcellulose) (HPC) 104 % of control

C[n+]1ccccc1/C=C/c1csc2ccccc12
inactive: dose: 5.0 mg/kg/injection, schedule: Q01DX001 (ip), vehicle: carboxymethylcellulose (CMC) 100 % of control | dose: 10.0 mg/kg/injection, schedule: Q01DX001 (ip), vehicle: carboxymethylcellulose (CMC) 102 % of control | dose: 20.0 mg/kg/injection, schedule: Q01DX001 (ip), vehicle: carboxymethylcellulose (CMC) 100 % of control | dose: 40.0 mg/kg/injection, schedule: Q01DX001 (ip), vehicle: carboxymethylcellulose (CMC) 100 % of control | dose: 80.0 mg/kg/injection, schedule: Q01DX001 (ip), vehicle: carboxymethylcellulose (CMC) 107 % of control

CN(C)C(=O)Nc1ccc(Cc2ccc(NC(=O)N(C)C)cc2)cc1
inactive: [9] 96 % of control | [10] 92 % of control | [11] 96 % of control

Cc1ccc(S(=O)(=O)[n+]2ccc(C)cc2)cc1
inactive: [7] 98 % of control | [8] 95 % of control

CCCC(C(=O)O)c1ccccc1C (stereo unspecified)
inactive: [1] 102 % of control | [2] 102 % of control | [3] 98 % of control | [4] 97 % of control | [5] 105 % of control | [6] 107 % of control

Oc1c(Cl)cc(Cl)cc1/C=C1\C=Nc2ccccc21
inactive: dose: 100.0 mg/kg/injection, schedule: Q04DX002 (ip), vehicle: saline 97 % of control | dose: 200.0 mg/kg/injection, schedule: Q04DX002 (ip), vehicle: saline 94 % of control | dose: 400.0 mg/kg/injection, schedule: Q04DX002 (ip), vehicle: saline 102 % of control

CC12CCC(=O)C=C1CCC1C2C(=O)CC2(C)C1CCC2(O)C(=O)COC(=O)c1cc([N+](=O)[O-])cc([N+](=O)[O-])c1N1CC1 (stereo unspecified)
inactive: dose: 60.0 mg/kg/injection, schedule: Q01DX015 (ip), vehicle: saline 94 % of control | dose: 90.0 mg/kg/injection, schedule: Q01DX015 (ip), vehicle: saline 96 % of control | dose: 135.0 mg/kg/injection, schedule: Q01DX015 (ip), vehicle: saline 92 % of control | dose: 200.0 mg/kg/injection, schedule: Q01DX015 (ip), vehicle: saline 100 % of control

NC(N)=N/N=C(\c1ccc(F)cc1)c1ccc(C(F)(F)F)cc1
inactive: dose: 9.5 mg/kg/injection, schedule: Q01DX001 (ip), vehicle: other 92 % of control | dose: 19.0 mg/kg/injection, schedule: Q01DX001 (ip), vehicle: other 97 % of control | dose: 38.0 mg/kg/injection, schedule: Q01DX001 (ip), vehicle: other 98 % of control

CC(C)C(C(=O)O)c1ccccc1 (stereo unspecified)
inactive: [12] 100 % of control | [13] 112 % of control | [14] 107 % of control

Cc1ccc(N=Nc2ccc(C)cc2NC(=O)Nc2cc(Cl)ccc2C)cc1
inactive: [9] 93 % of control | [10] 94 % of control

CC1=C/C(=N/N(C)C)CC(C)C1 (stereo unspecified)
inactive: dose: 12.5 mg/kg/injection, schedule: Q01DX009 (ip), vehicle: saline 96 % of control | dose: 25.0 mg/kg/injection, schedule: Q01DX009 (ip), vehicle: saline 102 % of control | dose: 50.0 mg/kg/injection, schedule: Q01DX009 (ip), vehicle: saline 95 % of control | [12] 100 % of control | [13] 109 % of control | [14] 112 % of control

CCOC1(OCC)C(Cl)=C(Cl)C(Cl)=C1Cl
inactive: dose: 25.0 mg/kg/injection, schedule: Q01DX005 (ip), vehicle: Klucel (hydroxypropylcellulose) (HPC) 108 % of control | dose: 25.0 mg/kg/injection, schedule: Q01DX009 (ip), vehicle: Klucel (hydroxypropylcellulose) (HPC) 110 % of control | dose: 25.0 mg/kg/injection, schedule: Q04DX002 (ip), vehicle: Klucel (hydroxypropylcellulose) (HPC) 104 % of control | dose: 50.0 mg/kg/injection, schedule: Q01DX005 (ip), vehicle: Klucel (hydroxypropylcellulose) (HPC) 102 % of control | dose: 50.0 mg/kg/injection, schedule: Q01DX009 (ip), vehicle: Klucel (hydroxypropylcellulose) (HPC) 96 % of control | dose: 50.0 mg/kg/injection, schedule: Q04DX002 (ip), vehicle: Klucel (hydroxypropylcellulose) (HPC) 104 % of control | dose: 100.0 mg/kg/injection, schedule: Q01DX005 (ip), vehicle: Klucel (hydroxypropylcellulose) (HPC) 97 % of control

C[N+](C)(Cc1ccccc1)CC(O)COc1ccccc1 (stereo unspecified)
inactive: dose: 12.5 mg/kg/injection, schedule: Q01DX001 (ip), vehicle: saline with Tween-80 108 % of control | dose: 12.5 mg/kg/injection, schedule: Q01DX009 (ip), vehicle: saline with Tween-80 100 % of control | dose: 12.5 mg/kg/injection, schedule: Q04DX003 (ip), vehicle: saline with Tween-80 92 % of control | dose: 25.0 mg/kg/injection, schedule: Q01DX001 (ip), vehicle: saline with Tween-80 100 % of control | dose: 25.0 mg/kg/injection, schedule: Q01DX009 (ip), vehicle: saline with Tween-80 94 % of control | dose: 25.0 mg/kg/injection, schedule: Q04DX003 (ip), vehicle: saline with Tween-80 94 % of control | dose: 50.0 mg/kg/injection, schedule: Q01DX001 (ip), vehicle: saline with Tween-80 100 % of control | dose: 50.0 mg/kg/injection, schedule: Q01DX009 (ip), vehicle: saline with Tween-80 102 % of control | dose: 50.0 mg/kg/injection, schedule: Q04DX003 (ip), vehicle: saline with Tween-80 103 % of control

C/C(CCl)=N\Nc1ccc([N+](=O)[O-])cc1[N+](=O)[O-]
inactive: dose: 100.0 mg/kg/injection, schedule: Q01DX001 (ip), vehicle: saline with Tween-80 101 % of control | dose: 200.0 mg/kg/injection, schedule: Q01DX001 (ip), vehicle: saline with Tween-80 98 % of control

Cc1ccc(CO)cc1
inactive: dose: 100.0 mg/kg/injection, schedule: Q01DX009 (ip), vehicle: saline 97 % of control | [12] 106 % of control | [13] 114 % of control | dose: 400.0 mg/kg/injection, schedule: Q01DX009 (ip), vehicle: saline 92 % of control | [14] 106 % of control

COC(=O)CC(=O)c1ccc(S(=O)(=O)F)cc1
inactive: [9] 104 % of control | dose: 100.0 mg/kg/injection, schedule: Q04DX003 (ip), vehicle: Klucel (hydroxypropylcellulose) (HPC) 98 % of control | [10] 97 % of control | dose: 200.0 mg/kg/injection, schedule: Q04DX003 (ip), vehicle: Klucel (hydroxypropylcellulose) (HPC) 96 % of control | [11] 101 % of control | dose: 400.0 mg/kg/injection, schedule: Q04DX003 (ip), vehicle: Klucel (hydroxypropylcellulose) (HPC) 100 % of control

CN1CCc2ccc(Oc3cccc4c3CCN(C)C4)cc2C1
inactive: dose: 75.0 mg/kg/injection, schedule: Q01DX001 (ip), vehicle: other 112 % of control | dose: 150.0 mg/kg/injection, schedule: Q01DX001 (ip), vehicle: other 92 % of control

Cc1c(Cl)cc(C(C)C)c(O)c1CN1CCOCC1
inactive: dose: 222.0 mg/kg/injection, schedule: Q01DX Z (ip), vehicle: methylcellulose (MC) 96 % of control | dose: 333.0 mg/kg/injection, schedule: Q01DX Z (ip), vehicle: methylcellulose (MC) 109 % of control | dose: 500.0 mg/kg/injection, schedule: Q01DX Z (ip), vehicle: methylcellulose (MC) 102 % of control

COC(=O)c1cc(=O)nc2n1C1OC(CO)C(O)C1O2 (stereo unspecified)
inactive: dose: 100.0 mg/kg/injection, schedule: Q01DX001 (ip), vehicle: saline 95 % of control | dose: 200.0 mg/kg/injection, schedule: Q01DX001 (ip), vehicle: saline 101 % of control | dose: 400.0 mg/kg/injection, schedule: Q01DX001 (ip), vehicle: saline 93 % of control
